These are literature values, as cited in patent US20060269583A1, “Process and composition for treating wood” (priority 2005, published 2006).

Bounds are passed on as bounds.

The conditions of this data set: in about 10 years under a given set of field conditions.

For copper amine carbonate complex, the “copper removed by leaching” value is listed as at most 80%.
